The numbers were not newly measured in PMC8025584, “Identification of multipotent drugs for COVID-19 therapeutics with the evaluation of their SARS-CoV2 inhibitory activity” (Computational and Structural Biotechnology Journal, 2021), which cites them from elsewhere.

Counter-ions that a name gives are not always drawn. Like-named read-outs stand apart in the source and are kept apart here. Where no end group is shown, it is not given here.

The subject of this data set is differentially expressed human proteins in COVID-19. The conditions noted are these: cited from earlier work.
[1] abbreviates: gene HCK, drug-gene interaction listed in DGIdb export, ref DGIdb.
Setting [2] is: gene TNF, drug-gene interaction listed in DGIdb export, ref DGIdb.
Setting [3] is: gene CACNA1A, drug-gene interaction listed in DGIdb export, ref DGIdb.

For `Cc1oncc1C(=O)Nc1ccc(C(F)(F)F)cc1` [LEFLUNOMIDE], for the setting “gene PTK2B, ref DGIdb”, the interaction_types result is “antagonist”.

As for `NS(=O)(=O)c1cc2c(cc1Cl)N=C(CSCc1ccccc1)NS2(=O)=O` [BENZTHIAZIDE, reference compound], the interaction_types entry (gene CA1, ref DGIdb) is “inhibitor”.

Regarding CEPROTIN, where the note is “gene F5, drug-gene interaction listed in DGIdb export, ref DGIdb”, the interaction_types entry is “inactivator”.

Turning to `O=C1Nc2ccccc2/C1=C1/Nc2ccccc2C1=O` [INDIRUBIN], the interaction_types result is “substrate”.

Consider `O=c1cc(-c2ccccc2)oc2cc(O)cc(O)c12` [CHRYSIN], for which, where the note is “gene CYP1A1, ref DGIdb”, the interaction_types entry is recorded as “inhibitor”.

Turning to REGRAMOSTIM, the interaction_types entry (gene CSF2RB, ref DGIdb) is listed as “agonist”.

For `NC(=O)[C@@H](CCC(F)(F)F)N(Cc1ccc(-c2ncon2)cc1F)S(=O)(=O)c1ccc(Cl)cc1`, the interaction_types result (gene PSENEN, ref DGIdb) is reported as “inhibitor”.

For the compound `Cc1cc(-c2cc(OC(=O)c3ccccc3)ccc2Cl)cc2nnc(Nc3ccc(OCCN4CCCC4)cc3)nc12` [TG100-801], the interaction_types result (gene FGR, ref DGIdb) is given as “inhibitor” and the interaction_types result under setting [1] is recorded as “inhibitor”.

Turning to `CC(=O)Nc1nnc(S(N)(=O)=O)s1` [ACETAZOLAMIDE], the interaction_types result (gene CA1, ref DGIdb) is recorded as “inhibitor”.

For the compound `CCN[C@H]1CN(CCCOC)S(=O)(=O)c2sc(S(N)(=O)=O)cc21` [BRINZOLAMIDE], the interaction_types result (gene CA1, ref DGIdb) is recorded as “inhibitor”.

`CCC1=C[C@@H]2CN(C1)Cc1c([nH]c3ccccc13)[C@@](C(=O)OC)(c1cc3c(cc1OC)N(C)[C@H]1[C@@](O)(C(=O)OC)[C@H](OC(C)=O)[C@]4(CC)C=CCN5CC[C@]31[C@@H]54)C2` [VINORELBINE TARTRATE]: the interaction_types entry (gene TUBA4A, ref DGIdb) is “inhibitor”.

`CCCc1c2oc(C(=O)O)cc(=O)c2cc2c(=O)cc(C(=O)O)n(CC)c12` [NEDOCROMIL, reference compound]: the interaction_types entry (gene FPR1, ref DGIdb) is listed as “antagonist”.

`NC(=O)c1cnc(N[C@@H]2CCCC[C@@H]2N)nc1Nc1cccc(-n2nccn2)c1` [PRT-2607]: the interaction_types result (gene FGR, ref DGIdb) is reported as “inhibitor”.

For `C1CCC2(C1)C1CN(CC3CC3)CC2CN(CC2CC2)C1`, where the note is “gene KCNH7, ref DGIdb”, the interaction_types result was “blocker”.

For the compound `Nc1cc(-c2ccncc2)c[nH]c1=O` [INAMRINONE], the interaction_types result under setting [2] was “inhibitor”.

With `Nc1cnc(-c2cc(Cl)cc(Cl)c2Cl)c(N)n1` [[…]], the interaction_types result under setting [3] is listed as “blocker”.

Take `Nc1nc2nc[nH]c2c(=O)[nH]1` [GUANINE]: the interaction_types result (gene GCH1, ref DGIdb) is “inhibitor”.

As for ADALIMUMAB, under setting [2], the interaction_types entry is recorded as “antibody¦inhibitor”.

For the compound `Nc1ncnc2c1ncn2[C@@H]1O[C@H](CO)[C@@H](O)[C@H]1O` [ADENOSINE, reference compound], the interaction_types entry (gene PI4K2B, ref DGIdb) was “inhibitor”.

With `NS(=O)(=O)c1ccc(S(=O)(=O)Nc2cccc3c(Cl)c[nH]c23)cc1`, for the setting “gene CA1, ref DGIdb”, the interaction_types entry is recorded as “inhibitor”.

In the case of `N[C@@H](CCC(=O)N[C@@H](CS)C(=O)NCC(=O)O)C(=O)O` [GLUTATHIONE], the interaction_types result is on record as “cofactor”.

With TRASTUZUMAB EMTANSINE, the interaction_types entry was “inhibitor”.

In the case of `CC/C=C\C/C=C\C/C=C\C/C=C\C/C=C\C/C=C\CCC(=O)O` [DOCONEXENT], the interaction_types entry (gene RXRB, ref DGIdb) is “activator”.

Turning to `CCC[C@@H](C)C[C@H](N)CC(=O)O` [IMAGABALIN], the interaction_types entry under setting [3] is recorded as “modulator”.

Take `COc1ccc(CCN(C)CCCC(C#N)(c2ccc(OC)c(OC)c2)C(C)C)cc1OC` (stereo not drawn): under setting [3], the interaction_types result is listed as “inhibitor”.

As for `CN(c1ncccc1CNc1nc(Nc2ccc3c(c2)CC(=O)N3)ncc1C(F)(F)F)S(C)(=O)=O` [PF-00562271], the interaction_types entry (gene PTK2B, ref DGIdb) was “inhibitor”.

With `CC(C)c1cc(CNc2nc(Nc3cc(C4CC4)[nH]n3)cc(N3CCN(C)CC3)n2)on1` [XL-228], the interaction_types entry reads like this: (gene FGR, ref DGIdb) “inhibitor”; under setting [1], “inhibitor”.

On to `CC(=O)O[C@H]1C(=O)[C@@]2(C)[C@H]([C@H](OC(=O)c3ccccc3)[C@]3(O)C[C@H](OC(=O)[C@H](O)[C@@H](NC(=O)c4ccccc4)c4ccccc4)C(C)=C1C3(C)C)[C@]1(OC(C)=O)CO[C@@H]1C[C@@H]2O` [Paclitaxel, reference compound], for which the interaction_types result (gene TUBA4A, ref DGIdb) is “inhibitor”.

As for LIPEGFILGRASTIM, the interaction_types result (gene CSF3R, ref DGIdb) is listed as “agonist”.

In the case of `NS(=O)(=O)c1cc2c(cc1Cl)N=CNS2(=O)=O` [CHLOROTHIAZIDE], the interaction_types entry (gene CA1, ref DGIdb) is recorded as “inhibitor”.

For the compound `COc1cc([C@H]2C(C#N)=C(N)Oc3c2ccc(N)c3N)cc(Br)c1OC` [CROLIBULIN], the interaction_types entry (gene TUBA4A, ref DGIdb) is “inhibitor”.

Regarding `CC/C(=C(\c1ccc(O)cc1)c1ccc(OCCNC)cc1)c1ccccc1` [ENDOXIFEN], the interaction_types result (gene CYP19A1, ref DGIdb) was “inhibitor”.

Take `CC[C@]1(O)C[C@H]2CN(CCc3c([nH]c4ccccc34)[C@@](C(=O)OC)(c3cc4c(cc3OC)N(C=O)[C@H]3[C@@](O)(C(=O)OC)[C@H](OC(C)=O)[C@]5(CC)C=CCN6CC[C@]43[C@@H]65)C2)C1` [VINCRISTINE SULFATE]: for the setting “gene TUBA4A, ref DGIdb”, the interaction_types entry was “inhibitor”.

As to NADROPARIN, the interaction_types entry (gene FOS, ref DGIdb) was “inhibitor”.

On to `CN(C)C(=N)N=C(N)N` [METFORMIN], for which the interaction_types entry (gene PRKAB1, ref DGIdb) is “activator¦inducer”.

In the case of `C=C(c1ccc(C(=O)O)cc1)c1cc2c(cc1C)C(C)(C)CCC2(C)C` [BEXAROTENE, reference compound], under “gene RXRB, ref DGIdb”, the interaction_types entry is on record as “activator¦agonist”.

On to `O=C1CCC(N2C(=O)c3ccccc3C2=O)C(=O)N1` (stereo not drawn) [THALIDOMIDE, reference compound], for which the interaction_types entry under setting [2] is “inhibitor”.

As to `CCCCCc1cccc(CC(=O)O)c1` [SETOGEPRAM], the interaction_types entry (gene GPR84, ref DGIdb) is reported as “antagonist”.

In the case of `COc1ccccc1OCC(O)COC(N)=O` (stereo not drawn) [METHOCARBAMOL], for the setting “gene CA1, ref DGIdb”, the interaction_types result is listed as “inhibitor”.

On to `CC(C)C[C@H](CN)CC(=O)O` [PREGABALIN, reference compound], for which the interaction_types entry is given as “modulator¦inhibitor”.

Consider `COc1ccc(-c2ccc3cc(C(=O)O)ccc3c2)cc1C12CC3CC(CC(C3)C1)C2`, for which the interaction_types entry is recorded as “antagonist” (gene JUN, drug-gene interaction listed in DGIdb export, ref DGIdb) and “agonist” (gene RXRB, ref DGIdb).

For the compound ETANERCEPT, the interaction_types entry under setting [2] is reported as “inhibitor¦antibody”.

With `CC(C)[C@@H](NC(=O)NCC(C)(C)O)C(=O)N1CC[C@](O)(c2ccc(Cl)cc2)C(C)(C)C1` [BMS-817399], the interaction_types entry (gene CCR1, drug-gene interaction listed in DGIdb export, ref DGIdb) is given as “antagonist”.

Regarding `NS(=O)(=O)c1nnc(NS(=O)(=O)c2ccccc2)s1` [BENZOLAMIDE], for the setting “gene CA1, ref DGIdb”, the interaction_types entry is reported as “inhibitor”.

As to `COc1cc(Nc2c(C#N)cnc3cc(OCCCN4CCN(C)CC4)c(OC)cc23)c(Cl)cc1Cl` [BOSUTINIB], the interaction_types entry under setting [1] is listed as “inhibitor”.

On to `CC(C)(C#N)c1cc(Cn2cncn2)cc(C(C)(C)C#N)c1` [ANASTROZOLE], for which, where the note is “gene CYP19A1, ref DGIdb”, the interaction_types result is “inhibitor”.

Turning to `COc1cc2nc(N3CCN(C(=O)C4COc5ccccc5O4)CC3)nc(N)c2cc1OC` (stereo not drawn) [DOXAZOSIN], the interaction_types entry (gene KCNH7, ref DGIdb) is given as “inhibitor”.

For `O=C(O)Cc1cccc(-c2cc(CCCCCCc3ccc(O[C@H]4O[C@H](CO)[C@@H](O)[C@H](O)[C@@H]4O)c(-c4cccc(CC(=O)O)c4)c3)ccc2O[C@H]2O[C@H](CO)[C@@H](O)[C@H](O)[C@@H]2O)c1` [BIMOSIAMOSE], the interaction_types entry (gene SELL, ref DGIdb) is “inhibitor”.

For the compound `NCC1(CC(=O)O)CCCCC1` [GABAPENTIN, reference compound], the interaction_types result under setting [3] is recorded as “modulator”.

LVVYPWT [SPINORPHIN]: the interaction_types result (gene FPR1, ref DGIdb) was “antagonist”.

In the case of `CN(C)CC/C=C1/c2ccccc2COc2ccc(CC(=O)O)cc21` [OLOPATADINE, reference compound], the interaction_types result (gene S100A12, ref DGIdb) is recorded as “antagonist”.

As to `CCCCc1oc2ccc(NS(C)(=O)=O)cc2c1C(=O)c1ccc(OCCCN(CCCC)CCCC)cc1` [DRONEDARONE HYDROCHLORIDE], the interaction_types result (gene KCNJ2, ref DGIdb) is “blocker”.

As to `CCS(=O)(=O)Nc1ccc2c(c1)/C(=C(/Nc1ccc(CN3CCCCC3)cc1)c1ccccc1)C(=O)N2` [HESPERADIN], the interaction_types entry by setting is: under setting [1], “inhibitor”; (gene PTK2B, ref DGIdb) “inhibitor”.

With “INTERLEUKIN 15, RECOMBINANT NON-GLYCOSYLATED”, for the setting “gene IL2RG, ref DGIdb”, the interaction_types entry is given as “agonist”.

In the case of `Nc1ncnc2c1ncn2[C@@H]1O[C@H](COP(=O)(O)OP(=O)(O)O)[C@@H](O)[C@H]1O` [ADENOSINE DIPHOSPHATE], the interaction_types entry (gene P2RY13, ref DGIdb) is given as “agonist”.

For `COC1=CC(c2cc3ccccc3[nH]2)=N/C1=C\c1[nH]c(C)cc1C` [OBATOCLAX MESYLATE], the interaction_types entry (gene BCL2A1, ref DGIdb) was “inhibitor”.

For the compound `Nc1ccc(SC[C@@H]2CO[C@](CCc3ccc(Cl)cc3)(Cn3ccnc3)O2)cc1` [AZALANSTAT], where the note is “gene CYP19A1, ref DGIdb”, the interaction_types result was “inhibitor”.

Take `CCN(CC)CCCC(C)Nc1ccnc2cc(Cl)ccc12` (stereo not drawn) [CHLOROQUINE]: the interaction_types result under setting [2] is “inhibitor”.

Regarding `N#Cc1ccc(C(c2ccc(C#N)cc2)n2cncn2)cc1` [LETROZOLE], the interaction_types result (gene CYP19A1, ref DGIdb) is listed as “antagonist¦inhibitor”.

`COc1cc2nc(N3CCN(C(=O)c4ccco4)CC3)nc(N)c2cc1OC` [PRAZOSIN]: the interaction_types entry (gene KCNH7, ref DGIdb) is on record as “inhibitor”.

In the case of `COc1ccc(S(=O)(=O)N(Cc2cccnc2)[C@@H](C(=O)NO)C(C)C)cc1` [CGS-27023A], the interaction_types entry (gene MMP8, ref DGIdb) was “inhibitor”.

For BASILIXIMAB, for the setting “gene IL2RG, ref DGIdb”, the interaction_types entry is “inhibitor”.
